Laboratory results: patent US10604473B2, “Lipids that increase insulin sensitivity and methods of using the same” (Beth Israel Deaconess Medical Center, Inc., priority 2013, dated 2020)

Experiments:
Human islets = test: Glucose-stimulated insulin secretion in primary human islets; type: cell-based
Procedure: Two human donors provided cells used in these studies. Donor1 was a person, 5′0″, 157 lbs, with a BMI of 30.5, HbA1C was 5.8, who died from a stroke, but it was witnessed and they had no downtime. Islets were 80% pure and 95% viable. After arrival, islets were incubated overnight in human islet media before stimulation with glucose in presence and absence of 5-PAHSA (lipid A-5). Note 1 IU of Human Insulin=6 nmol=34.8 μg Insulin.
Human islets were divided into ten groups [100 islets per condition]
A] Low glucose [2.5 mM]; B] High glucose [20.0 mM]; C] Low glucose [2.5 mM]+2.5 μL/mL Methanol; D] High glucose [20.0 mM]+2.5 μL/mL Methanol; E] Low glucose+20 μM Lipid A-5; F] High glucose+20 μM Lipid A-5; G] Low glucose+50 μM Lipid A-5; H] High glucose+50 μM Lipid A-5.
Islets were cultured overnight in Human Islet media and next day incubated with KRB buffer for 4 h prior to glucose stimulation.
Following KRB incubation, islets were stimulated with glucose [2.5 mM & 20.0 mM] in the presence and absence of Lipid A-5 [20 & 50 μM] for 45 min
At the end of glucose stimulation the amount of insulin released [μ IU/mL] into the media was measured using Human Insulin ELISA kit. And the insulin content from the islets were extracted to express insulin released into the media as μ IU/mL/islet content.
Donor 2 was a person, 183 cm, 176 lbs, with a BMI of 23.9, HbA1C was 5.0, died from a stroke, but it was witnessed and they had no downtime. Islets were 85% pure and 95% viable. After arrival, islets were incubated overnight in human islet media before stimulation with glucose in presence and absence of 5-PAHSA (Lipid A-5).
Human islets were divided into […] [75 islets per condition]: A] Low glucose [2.5 mM]; B] High glucose [20.0 mM]; C] Low glucose [2.5 mM]+2.5 μL/mL Methanol; D] High glucose [20.0 mM]+2.5 μL/mL Methanol; E] Low glucose+20 μM Lipid A-5; F] High glucose+20 μM Lipid A-5.
Following KRB incubation, islets were stimulated with glucose [2.5 mM & 20.0 mM] in the presence and absence of Lipid A-5 [20 μM] for 45 min.

isolated rat islets = test: Insulin release in isolated rat islets; type: cell-based; conditions: 25 mM glucose in the media
Procedure: Ins1 cells (FIG. 21) or primary rat islet cells (FIG. 22) were seeded in 24 well-plates [˜10^6 cells/well]. At confluence, cells were incubated with Low Serum [2.5%] and Low Glucose [2.5 mM] media for 12 hours. Next, cells were incubated with KRB buffer for 1 h and stimulated with glucose in the presence of 5-PAHSA (FIG. 21) or 9-PAHSA (FIG. 21) for 45 min in KRB. At the end of the stimulation, 100 μL of media was collected and 10 μL was used to quantitate the amount of insulin released by ELISA. Treatment Conditions for FIGS. 21 and 22 were: • 5-PAHSA or 9-PAHSA [Stock]=20.0 mM [10.76 mg/mL Methanol] • A] 1 uM=0.3 uL/6 mL [Amount of methanol/mL=0.05 uL] • B] 5 uM=1.5 uL/6 mL [Amount of methanol/mL=0.25 uL] • C] 10 uM=3.0 uL/6 mL [Amount of methanol/mL=0.50 uL] • D] 20 uM=6.0 uL/6 mL [Amount of methanol/mL=1.00 uL] […]
Isolated rat islets were cultured overnight in RPMI 1640 medium containing 2.5 mM glucose and 2.5% fetal bovine serum supplemented with 100 IU/ml penicillin and 100 IU/ml streptomycin, 1 mM sodium pyruvate, and 10 mM HEPES (pH 7.4). […] At the end of the stimulation supernatant was collected and insulin released into the medium was quantified by ELISA as per manufacturer's protocol. The islets were lysed and protein content was measured and the amount of insulin released into the media was quantitated as ng/mL/μg of protein.

aged chow-fed mice = test: Oral glucose tolerance test in aged chow-fed mice, with serum insulin and GLP-1; type: in vivo, mouse
Procedure: Area under the curve (AUC), *p<0.05 compared to vehicle. […] Area above the curve (AAC). *p<0.05 compared to vehicle. […] Area under the curve (AUC). *p<0.05 compared to vehicle. FIG. 53D is a bar graph showing serum insulin levels 5 min post glucose challenge in chow-fed mice gavaged with 5-PAHSA or vehicle (glucose values shown in FIG. 53C). n=12-14 per group, *p<0.05 compared to vehicle by t-test. FIG. 53E is a bar graph showing serum GLP-1 levels 5 min post glucose challenge from chow-fed mice gavaged with 5-PAHSA or vehicle (glucose levels in FIG. 53C). n=12-14 per group, *p<0.05 compared to vehicle by t-test. FIG. 53F are bar graphs showing insulin secretion from primary human islets from two independent donors. Islets were incubated with low (2.5 mM) or high (20 mM) glucose ex vivo in the presence of 5-PAHSA (20 μM) or vehicle control. n=100 islets per condition, *p<0.05 compared to control 2.5 mM glucose, ^#p<0.05 compared to respective treatments at 2.5 mM glucose, ^$p<0.05 compared to control or diluents at 20 mM glucose by t-test. FIG. 53G are bar graphs showing active GLP-1 secretion from STC-1 cells in response to 5-PAHSA (5-P), 9-PAHSA (9P), […] (LA), GW9508 (GW) or vehicle control (DMSO). n=4 per group, *p<0.05 compared to vehicle by t-test. All data are mean±s.e.m. See also FIG. 56.
Studies were conducted to determine whether the PAHSA effects to improve glucose tolerance resulted entirely from the increased insulin sensitivity or also from improved insulin secretion. Therefore, the effects of PAHSAs on glucose-stimulated insulin secretion were tested in vivo in aged (47 weeks old) chow-fed mice. […] Thus, PAHSAs acutely improve insulin sensitivity and glucose tolerance and stimulate GLP-1 and insulin secretion.

[1] = 5 minutes after glucose administration

## CCCCCCCCCCCCCCCC(=O)OC(CCCCCCCCCCCCC)CCCC(=O)O (centres unmarked) [5-PAHSA]
Human islets; 2.5 mM glucose, 5-PAHSA 20 μM
  insulin secretion: had no effect on insulin secretion
Human islets; 20 mM glucose, 5-PAHSA 20 μM
  insulin secretion response: augmented the insulin secretion response
Human islets; Donor 1
  Glucose Stimulated Insulin Secretion: induces Glucose Stimulated Insulin Secretion
Human islets; Donor 2
  Glucose Stimulated Insulin Secretion: induces Glucose Stimulated Insulin Secretion
Isolated rat islets
  glucose-stimulated insulin secretion: potentiates glucose-stimulated insulin secretion
Aged chow-fed mice; [1]
  GLP-1 levels: increased
  insulin secretion: acute enhancement of insulin secretion
Aged chow-fed mice; OGTT, gavage 30 min prior
  glucose tolerance: improved glucose tolerance
